Laboratory results from ChEMBL document CHEMBL3792317, “Novel tetrazoloquinoline-rhodanine conjugates: Highly efficient synthesis and biological evaluation” (Bioorg Med Chem Lett, 2016).
Values after ≈ are worked out from the molar mass of the structure shown. Active and inactive are the calls of the source. No cut-off for these calls is given here.

Assays:
[1] = tested on: Mycobacterium tuberculosis; experiment: Antitubercular activity against Mycobacterium tuberculosis H37Ra ATCC 25177 incubated for 40 mins by XTT Reduction Menadione Assay; type: functional; details: H37Ra ATCC 25177, 40 min
[2] = Antitubercular activity against Mycobacterium bovis BCG ATCC 35743 incubated for 40 mins by XTT Reduction Menadione Assay; type: functional, Mycobacterium bovis BCG str. ATCC 35743; details: Mycobacterium tuberculosis variant bovis BCG, ATCC 35743, 40 min
[3] = tested on: Mycobacterium tuberculosis; experiment: Antitubercular activity against dormant Mycobacterium tuberculosis H37Ra ATCC 25177 incubated for 40 mins by XTT Reduction Menadione Assay; type: functional; details: H37Ra ATCC 25177, 40 min
[4] = tested on: Mycobacterium tuberculosis; experiment: Antitubercular activity against active Mycobacterium tuberculosis H37Ra ATCC 25177 incubated for 40 mins by XTT Reduction Menadione Assay; type: functional; details: H37Ra ATCC 25177, 40 min
[5] = tested on: Mycobacterium bovis BCG str. ATCC 35743; experiment: Antitubercular activity against dormant Mycobacterium bovis BCG ATCC 35743 incubated for 40 mins by XTT Reduction Menadione Assay; type: functional
[6] = tested on: Mycobacterium bovis BCG str. ATCC 35743; experiment: Antitubercular activity against active Mycobacterium bovis BCG ATCC 35743 incubated for 40 mins by XTT Reduction Menadione Assay; type: functional
[7] = (§1) Cytotoxicity against human HeLa cells after 48 hrs by MTT assay; type: cell-based; details: HeLa cells
[8] = Cytotoxicity against human PANC1 cells after 48 hrs by MTT assay; type: cell-based, PANC-1; details: for GI50 at 48 h: PANC1 cells
[9] = (§2) Cytotoxicity against human A549 cells after 48 hrs by MTT assay; type: cell-based; details: A549 cells
[10] = Cytotoxicity against human THP1 cells after 48 hrs by MTT assay; type: cell-based, THP-1; details: for GI50 at 48 h: THP1 cells
[11] = Selectivity index, ratio of GI50 for human HeLa cells to MIC for Mycobacterium tuberculosis H37Ra ATCC 25177; type: toxicity, cell-based; details: read-out: Selectivity Index
[12] = Selectivity index, ratio of GI50 for human HeLa cells to MIC for Mycobacterium bovis BCG ATCC 35743; type: toxicity, cell-based; details: read-out: Selectivity Index
[13] = Selectivity index, ratio of GI50 for human PANC1 cells to MIC for Mycobacterium tuberculosis H37Ra ATCC 25177; type: toxicity, cell-based, PANC-1; details: read-out: Selectivity Index
[14] = Selectivity index, ratio of GI50 for human PANC1 cells to MIC for Mycobacterium bovis BCG ATCC 35743; type: toxicity, cell-based, PANC-1; details: read-out: Selectivity Index
[15] = Selectivity index, ratio of GI50 for human A549 cells to MIC for Mycobacterium tuberculosis H37Ra ATCC 25177; type: toxicity, cell-based; details: read-out: Selectivity Index
[16] = Selectivity index, ratio of GI50 for human A549 cells to MIC for Mycobacterium bovis BCG ATCC 35743; type: toxicity, cell-based; details: read-out: Selectivity Index
[17] = Selectivity index, ratio of GI50 for human THP1 cells to MIC for Mycobacterium tuberculosis H37Ra ATCC 25177; type: toxicity, cell-based, THP-1; details: read-out: Selectivity Index
[18] = Selectivity index, ratio of GI50 for human THP1 cells to MIC for Mycobacterium bovis BCG ATCC 35743; type: toxicity, cell-based, THP-1; details: read-out: Selectivity Index
Candida albicans = experiment: Antifungal activity against Candida albicans NCIM 3471 after 48 hrs by agar cup plate method; type: functional; details: NCIM 3471, 48 h
Fusarium oxysporum = experiment: Antifungal activity against Fusarium oxysporum NCIM 1332 after 48 hrs by agar cup plate method; type: functional; details: NCIM 1332, 48 h
Aspergillus flavus = experiment: Antifungal activity against Aspergillus flavus NCIM 539 after 48 hrs by agar cup plate method; type: functional; details: NCIM 539, 48 h
Aspergillus niger = experiment: Antifungal activity against Aspergillus niger NCIM 1196 after 48 hrs by agar cup plate method; type: functional; details: NCIM 1196, 48 h
Cryptococcus neoformans [19] = experiment: Antifungal activity against Cryptococcus neoformans NCIM 576 up to 200 ug/ml after 48 hrs by agar cup plate method; type: functional, organism-based
[20] = tested on: Mycobacterium tuberculosis; experiment: Antitubercular activity against Mycobacterium tuberculosis H37Ra ATCC 25177 at 30 ug/ml incubated for 40 mins by XTT Reduction Menadione Assay; type: functional; details: H37Ra ATCC 25177, 40 min, read-out: GI
[21] = tested on: Mycobacterium tuberculosis; experiment: Antitubercular activity against Mycobacterium tuberculosis H37Ra ATCC 25177 at 10 ug/ml incubated for 40 mins by XTT Reduction Menadione Assay; type: functional; details: H37Ra ATCC 25177, 40 min, read-out: GI
[22] = tested on: Mycobacterium tuberculosis; experiment: Antitubercular activity against Mycobacterium tuberculosis H37Ra ATCC 25177 at 3 ug/ml incubated for 40 mins by XTT Reduction Menadione Assay; type: functional; details: H37Ra ATCC 25177, 40 min, read-out: GI
[23] = tested on: Mycobacterium bovis BCG str. ATCC 35743; experiment: Antitubercular activity against dormant Mycobacterium bovis BCG ATCC 35743 at 30 ug/ml incubated for 40 mins by XTT Reduction Menadione Assay; type: functional
[24] = tested on: Mycobacterium bovis BCG str. ATCC 35743; experiment: Antitubercular activity against dormant Mycobacterium bovis BCG ATCC 35743 at 10 ug/ml incubated for 40 mins by XTT Reduction Menadione Assay; type: functional
[25] = tested on: Mycobacterium bovis BCG str. ATCC 35743; experiment: Antitubercular activity against dormant Mycobacterium bovis BCG ATCC 35743 at 3 ug/ml incubated for 40 mins by XTT Reduction Menadione Assay; type: functional
Cryptococcus neoformans [26] = experiment: Antifungal activity against Cryptococcus neoformans NCIM 576 after 48 hrs by agar cup plate method; type: functional; details: NCIM 576, 48 h
HeLa = experiment: as §1; type: cell-based; details: hela, 48 h
A549 = experiment: as §2; type: cell-based; details: a549, 48 h
Escherichia coli = experiment: Antibacterial activity against Escherichia coli after 18 hrs by broth dilution method; type: functional
Pseudomonas fluorescens = experiment: Antibacterial activity against Pseudomonas fluorescens after 18 hrs by broth dilution method; type: functional
Staphylococcus aureus = experiment: Antibacterial activity against Staphylococcus aureus after 18 hrs by broth dilution method; type: functional
Bacillus subtilis = experiment: Antibacterial activity against Bacillus subtilis after 18 hrs by broth dilution method; type: functional

SMILES | MIC [1] [µg/mL] | MIC [2] [µg/mL] | IC90 [3] [µg/mL] | IC90 [4] [µg/mL] | IC90 [5] [µg/mL] | GI50 at 48 h [7] [µg/mL] | GI50 at 48 h [8] [µg/mL] | GI50 at 48 h [9] [µg/mL] | GI50 at 48 h [10] [µg/mL] | MIC (Candida albicans) [µg/mL] | MIC (Fusarium oxysporum) [µg/mL] | MIC (Aspergillus flavus) [µg/mL] | MIC (Aspergillus niger) [µg/mL] | MIC (Cryptococcus neoformans [19]) | inhibition of growth at 30 µg/mL [20] [%] | inhibition of growth at 10 µg/mL [21] [%] | inhibition of growth at 3 µg/mL [22] [%] | growth inhibition (GI) [23] [%] | growth inhibition (GI) [24] [%] | growth inhibition (GI) [25] [%] | further results
CO[C@H]1/C=C/O[C@@]2(C)Oc3c(C)c(O)c4c(O)c(c(/C=N/N5CCN(C)CC5)c(O)c4c3C2=O)NC(=O)/C(C)=C\C=C\[C@H](C)[C@H](O)[C@@H](C)[C@@H](O)[C@@H](C)[C@H](OC(C)=O)[C@@H]1C [RIFAMPIN] | 0.72 (≈ 0.875 µM) | 0.89 (≈ 1.08 µM) | 0.72 (≈ 0.875 µM) | 0.05 (≈ 0.0608 µM) | 0.89 (≈ 1.08 µM) | > 100 | > 100 | > 100 | > 100 | – | – | – | – | – | – | – | – | – | – | – | IC90 [6]: 0.061 µg/mL (≈ 0.0741 µM); selectivity ratio [11]: > 139; selectivity ratio [12]: > 112; selectivity ratio [13]: > 139; selectivity ratio [14]: > 112; selectivity ratio [15]: > 139; selectivity ratio [16]: > 112; selectivity ratio [17]: > 139; selectivity ratio [18]: > 112
COc1ccc2c(c1)cc(/C=C1\SC(=S)N(CCC(=O)O)C1=O)c1nnnn12 | > 250 | > 250 | – | – | – | – | – | – | – | 150 (≈ 361 µM) | 125 (≈ 301 µM) | 150 (≈ 361 µM) | 150 (≈ 361 µM) | inactive | 15.9 | 27.9 | -0.42 | 23.9 | 16 | 8.94 | –
Cc1ccc2cc(/C=C3\SC(=S)N(CC(=O)O)C3=O)c3nnnn3c2c1 | 159 (≈ 413 µM) | 24.2 (≈ 62.7 µM) | 159 (≈ 413 µM) | > 250 | 24.2 (≈ 62.7 µM) | > 100 | > 100 | > 100 | > 100 | 75 (≈ 195 µM) | 100 (≈ 259 µM) | 50 (≈ 130 µM) | 150 (≈ 389 µM) | – | 65 | 49.2 | 31.7 | 50.6 | 19.2 | -4.5 | MIC (Cryptococcus neoformans [26]): 150 µg/mL (≈ 389 µM); GI90 (HeLa): > 100 µg/mL; GI90 ([8]; panc-1, 48 h): > 100 µg/mL; GI90 (A549): > 100 µg/mL; GI90 ([10]; thp-1, 48 h): > 100 µg/mL
COc1ccc2cc(/C=C3\SC(=S)NC3=O)c3nnnn3c2c1 | > 250 | > 250 | – | – | – | – | – | – | – | 150 (≈ 437 µM) | 100 (≈ 291 µM) | 100 (≈ 291 µM) | 25 (≈ 72.8 µM) | inactive | 14.1 | 15.6 | 1.97 | 3.63 | -1.87 | -3.47 | MIC (Escherichia coli): 102 µg/mL (≈ 298 µM); MIC (Pseudomonas fluorescens): 157 µg/mL (≈ 457 µM); MIC (Staphylococcus aureus): 247 µg/mL (≈ 721 µM); MIC (Bacillus subtilis): 246 µg/mL (≈ 716 µM)
